Measurements reported in patent US20230187019A1, “METHOD FOR DETERMINING A DRUG COMBINATION VIA A BLOCKING MODEL OF A MULTI-SITE-TARGETED PROTEIN AND APPLICATIONS THEREOF” (National Tsing Hua University, priority 2021, published 2023).
Entries after “also recorded” stand apart in the source; their conditions may differ. Like-named read-outs stand apart in the source and are kept apart here.

Columns and labels:
[1] = tested on: HCT116; experiment: Cell viability assay on HCT116; format: cell-based, human; settings: for HCT116 Cell Viability: remaining viability; for viability at 20 µM: Homo sapiens
[2] = tested on: shCtrl/HCT116; experiment: Cell viability assay on shCtrl/HCT116 (control strain); format: cell-based, human; settings: for shCtrl/HCT116 Cell Viability: remaining viability; for viability at 20 µM: Homo sapiens
[3] = tested on: shATG4B/HCT116; experiment: Cell viability assay on shATG4B/HCT116 (ATG4B silencing strain); format: cell-based, human; settings: for difference of cell viability inhibition between shATG4B/HCT116 (S strain) and shCtrl/HCT116 (C strain): Student's t-test, p-value <0.05; for shATG4B/HCT116 Cell Viability: remaining viability; for viability at 20 µM: Homo sapiens
[4] = tested on: AsPC-1; experiment: Cell viability assay (MTT) on AsPC-1; settings: for inhibition of cell viability, significance: 20 μM, AsPC-1, p-value <0.05; for AsPC-1 Cell Viability: remaining viability, 20 μM drug, normalized by blank control, three repeats; for viability at 20 µM: Homo sapiens, ASPC1, read-out: AsPC-1 Cell Viability, remaining viability, 20 μM drug, normalized by blank control, three repeats
Description: The cell viability was measured using the MTT assay or CellTiter-Glo Luminescent Cell Viability Assay. For MTT assay, mouse AK4.4 (1,000 cells/well) and human AsPC-1 (1,500 cells/well) cells were seeded in 96-well plates and cultured in serum-free medium (SFM) containing indicated concentrations of drugs for 48 hours. To measure the cell viability, 15 μL MTT (3-(4,5-dimethylthiazol-2-yl)-2,5-diphenyltetrazolium bromide, 5 mg/mL in PBS) was added in each well and kept at 37° C. for three hours. The precipitated crystals were then dissolved in 50 μL DMSO, and the absorbance at 570 nm was measured by Multiskan GO Microplate Spectrophotometer (Thermo Scientific, USA) to estimate the cell survival rate. To quantify the drug combination effect, the combination index was calculated when the cell viability was reduced by 50% using the following Equation (1):

[5] = 20 μM drug, normalized by blank control, three repeats
[6] = HCT-116, remaining viability, 20 μM drug, normalized by blank control, three repeats, read-out: HCT116 Cell Viability
[7] = HCT-116, remaining viability, 20 μM drug, C strain, read-out: shCtrl/HCT116 Cell Viability
[8] = HCT-116, remaining viability, 20 μM drug, S strain, read-out: shATG4B/HCT116 Cell Viability

SMILES	inhibition of cell viability, significance [4]	viability at 20 µM [1, 6]	viability at 20 µM [2, 7]	viability at 20 µM [3, 8]	viability at 20 µM [4]	other results
CC[C@@]1(O)C[C@H](O[C@H]2C[C@H](N(C)C)[C@H](O[C@H]3C[C@H](O)[C@H](O[C@H]4CCC(=O)[C@H](C)O4)[C@H](C)O3)[C@H](C)O2)c2c(cc3c(c2O)C(=O)c2c(O)cccc2C3=O)[C@H]1C(=O)OC [Aclacinomycin A]	statistically significant					HCT116 Cell Viability [1, 5]: 27.9 ± 1.3%; HCT116 Cell Viability ([1]; 20 μM drug, normalized by blank control, three repeats, listed as aclacinomycin A): 28%; shCtrl/HCT116 Cell Viability ([2]; 20 μM drug, C strain): 27.7 ± 1.2%; shCtrl/HCT116 Cell Viability ([2]; 20 μM drug, C strain, listed as aclacinomycin A): 28%; difference of cell viability inhibition between shATG4B/HCT116 (S strain) and shCtrl/HCT116 (C strain) [3]: statistically significant; also recorded: significant differences; shATG4B/HCT116 Cell Viability ([3]; 20 μM drug, S strain): 38.4 ± 1.3%; shATG4B/HCT116 Cell Viability ([3]; 20 μM drug, S strain, listed as aclacinomycin A): 38%; AsPC-1 Cell Viability [4]: 48.3 ± 4.6%; AsPC-1 Cell Viability ([4]; listed as aclacinomycin A): 48%
O=C(c1c2ccccc2cc2ccccc12)N1CCC(N2CCC[C@@H](C(=O)N3CCOCC3)C2)CC1 [CP-640186]						HCT116 Cell Viability [1, 5]: 84.3 ± 2.0%; AsPC-1 Cell Viability [4]: 87.4 ± 4.7%
Cc1nc2c([nH]1)-c1ccccc1N(C(=O)c1ccc(NC(=O)c3ccccc3-c3ccccc3)cc1)CC2 [Conivaptan]		67.8 ± 0.5%	69.5 ± 2.2%	84 ± 2%	99.3 ± 2.8%	
COC(=O)N[C@H](C(=O)N1CCC[C@H]1c1nc(-c2ccc(-c3ccc(-c4c[nH]c([C@@H]5CCCN5C(=O)[C@@H](NC(=O)OC)C(C)C)n4)cc3)cc2)c[nH]1)C(C)C [Daclatasvir]		62.7 ± 0.3%	58.8 ± 2.6%	69.4 ± 3.7%	71.1 ± 4.2%	
CC(C)[C@@]1(NC(=O)[C@@H]2C[C@@H]3c4cccc5[nH]cc(c45)C[C@H]3N(C)C2)O[C@@]2(O)[C@@H]3CCCN3C(=O)[C@H](Cc3ccccc3)N2C1=O [Dihydroergocristine]	statistically significant	64 ± 3.7%			77.1 ± 1.6%	
C[C@@H]1CCO[C@H]2Cn3cc(C(=O)NCc4ccc(F)cc4F)c(=O)c(O)c3C(=O)N12 [Dolutegravir]		88 ± 4%	85.5 ± 2.9%	89.4 ± 2.5%	106 ± 5.3%	difference of cell viability inhibition between shATG4B/HCT116 (S strain) and shCtrl/HCT116 (C strain) [3]: statistically significant; also recorded: significant differences
C#C[C@]1(O)CC[C@H]2[C@@H]3CCc4cc(O)ccc4[C@H]3CC[C@@]21C [Ethynyl Estradiol]	statistically significant	47%	49%	70%	80.1 ± 6.4%	HCT116 Cell Viability [1, 5]: 47.4 ± 1.8%; shCtrl/HCT116 Cell Viability ([2]; 20 μM drug, C strain): 48.7 ± 1.4%; difference of cell viability inhibition between shATG4B/HCT116 (S strain) and shCtrl/HCT116 (C strain) [3]: statistically significant; also recorded: significant differences; shATG4B/HCT116 Cell Viability ([3]; 20 μM drug, S strain): 69.5 ± 3.3%
Cc1cc(-c2ccc(/N=N/c3ccc4c(S(=O)(=O)O)cc(S(=O)(=O)O)c(N)c4c3O)c(C)c2)ccc1/N=N/c1ccc2c(S(=O)(=O)O)cc(S(=O)(=O)O)c(N)c2c1O [Evans Blue]	statistically significant	35%	35%	34%	34%	HCT116 Cell Viability [1, 5]: 34.8 ± 1.3%; shCtrl/HCT116 Cell Viability ([2]; 20 μM drug, C strain): 34.9 ± 0.3%; shATG4B/HCT116 Cell Viability ([3]; 20 μM drug, S strain): 34.5 ± 1.7%; AsPC-1 Cell Viability [4]: 33.6 ± 1.2%
COc1ccc2c(c1)C(=O)N(CCc1ccc(S(=O)(=O)NC(=O)NC3CCCCC3)cc1)C(=O)C2(C)C [Gliquidone]		87 ± 1.6%	88.4 ± 7.3%	89.6 ± 0.6%	92.4 ± 5.3%	
CCC(C)n1ncn(-c2ccc(N3CCN(c4ccc(OCC5COC(Cn6cncn6)(c6ccc(Cl)cc6Cl)O5)cc4)CC3)cc2)c1=O (stereo not drawn) [Itraconazole]		82.6 ± 2.1%	84.1 ± 1.9%	91.3 ± 2.3%	93.6 ± 6.3%	
COC(=O)N[C@H](C(=O)N1CC2(CC2)C[C@H]1c1nc(-c2ccc3c(c2)C(F)(F)c2cc(-c4ccc5[nH]c([C@@H]6[C@H]7CC[C@H](C7)N6C(=O)[C@@H](NC(=O)OC)C(C)C)nc5c4)ccc2-3)c[nH]1)C(C)C [Ledipasvir]					95.2 ± 2.9%	viability at 20 µM ([1]; HCT-116, read-out: HCT116 Cell Viability, remaining viability, 20 μM drug, normalized by blank control, three repeats): 82.9 ± 2.7%; viability at 20 µM ([2]; HCT-116, read-out: shCtrl/HCT116 Cell Viability, remaining viability, 20 μM drug, C strain): 72.5 ± 0.8%; viability at 20 µM ([3]; HCT-116, read-out: shATG4B/HCT116 Cell Viability): 90.2 ± 1.8%; difference of cell viability inhibition between shATG4B/HCT116 (S strain) and shCtrl/HCT116 (C strain) [3]: statistically significant; also recorded: significant differences
Cc1ccccc1-c1cc(N2CCN(C)CC2)ncc1N(C)C(=O)C(C)(C)c1cc(C(F)(F)F)cc(C(F)(F)F)c1 [Netupitant]	statistically significant	3%			43%	HCT116 Cell Viability [1, 5]: 2.8 ± 0.4%; AsPC-1 Cell Viability [4]: 42.9 ± 5.1%
Cc1cn(-c2cc(NC(=O)c3ccc(C)c(Nc4nccc(-c5cccnc5)n4)c3)cc(C(F)(F)F)c2)cn1 [Nilotinib]		61.4 ± 4.4%	59.6 ± 1.7%	68.2 ± 1.1%	95.2 ± 3.4%	
Cc1cnc(C(=O)N[C@H]2CCCCC/C=C\[C@@H]3C[C@@]3(C(=O)NS(=O)(=O)C3CC3)NC(=O)[C@@H]3C[C@@H](Oc4nc5ccccc5c5ccccc45)CN3C2=O)cn1 [Paritaprevir]		85.8 ± 3.3%	75.4 ± 1.3%	88 ± 1.4%	98.7 ± 3%	difference of cell viability inhibition between shATG4B/HCT116 (S strain) and shCtrl/HCT116 (C strain) [3]: statistically significant; also recorded: significant differences
CC(C)(C)NC(=O)[C@@H]1C[C@@H]2CCCC[C@@H]2CN1C[C@@H](O)[C@H](Cc1ccccc1)NC(=O)[C@H](CC(N)=O)NC(=O)c1ccc2ccccc2n1 [Saquinavir]		67 ± 1.2%	63.5 ± 0.8%	65.4 ± 1.2%	84.6 ± 5.5%	
Cc1ccc(C(=O)Nc2ccc(S(=O)(=O)O)c3cc(S(=O)(=O)O)cc(S(=O)(=O)O)c23)cc1NC(=O)c1cccc(NC(=O)Nc2cccc(C(=O)Nc3cc(C(=O)Nc4ccc(S(=O)(=O)O)c5cc(S(=O)(=O)O)cc(S(=O)(=O)O)c45)ccc3C)c2)c1 [Suramin]		100 ± 2.3%	104 ± 4.4%	98.3 ± 0.7%	107 ± 6.5%	
CO[C@H]1C[C@@H]2CC[C@@H](C)[C@@](O)(O2)C(=O)C(=O)N2CCCC[C@H]2C(=O)O[C@H]([C@H](C)C[C@@H]2CC[C@@H](OC(=O)C(C)(CO)CO)[C@H](OC)C2)CC(=O)[C@H](C)/C=C(\C)[C@@H](O)[C@@H](OC)C(=O)[C@H](C)C[C@H](C)/C=C/C=C/C=C/1C [Temsirolimus]	statistically significant	52.1 ± 0.9%	50%	60%	69 ± 4.2%	shCtrl/HCT116 Cell Viability ([2]; 20 μM drug, C strain): 49.5 ± 3.5%; difference of cell viability inhibition between shATG4B/HCT116 (S strain) and shCtrl/HCT116 (C strain) ([3]; listed as emsirolimus): significant differences; difference of cell viability inhibition between shATG4B/HCT116 (S strain) and shCtrl/HCT116 (C strain) ([3]; listed as temsirolimus): statistically significant; shATG4B/HCT116 Cell Viability ([3]; 20 μM drug, S strain): 60.5 ± 1.9%
